# Source: paper PMC4748848, “Pharmacokinetic/Toxicity Properties of the New Anti-Staphylococcal Lead Compound SK-03-92” (Antibiotics, 2015)
# Where “and” joins values, the source holds several entries; their conditions need not be identical. Equal values may be shown once. Entries after “also recorded” stand apart in the source; their conditions may differ. Read-outs that look alike come from different tables or passages of the source.
# Columns and labels:
# [1] = cited from earlier work
# mice, rats, and humans = conditions: cited from earlier work
# Single dose PK assay, ip = assay type: in vivo, BALB/c mice; conditions: mice
# Description: An initial single dose PK experiment was performed using 100 μg/g of formulated SK-03-92 administered ip to twenty-one female, 5–6 week old BALB/c mice (7 per cohort for 3 cohorts, NCI) under parameters established previously. Three animals were used as a control group and received blank vehicle, whereas three mice per time point received 100 μg/g SK-03-92 ip and were sacrificed with blood collected at the 15, 30, 45, 60, 75, and 90 min time points by warming the tails of the mice in warm water, lancing the lateral saphenous tail vein, and collecting the blood (up to 150 μL) into microvette tubes (Sarstedt) containing EDTA or terminal bleed into vacucontainers containing EDTA as an anti-coagulant. Plasma was separated from packed blood cells by centrifugation (600× g) and stored at −70 °C until needed for HPLC analysis. Samples were analyzed with a Shimadzu Prominence HPLC system (Kyoto, Japan) with a Halo C18 column (MAC-MOD Analytical Inc., Chadds Ford, PA, USA). A mobile phase of 62% acetonitrile/38% water, isocratic program of 62% acetonitrile for 20 min, and flow rate of 0.75 mL/min with an injection volume of 10 μL and a retention time of 5.4 min were used. The standard curve for SK-03-92 was linear from 0.0098 to 2.5 μg/mL in plasma. Each chromatogram was collected and integrated to estimate the peak area of analyte by EZ Chrom® software (version.1.0, Agilent Technologies Inc., Santa Clara, CA, USA). The ratio of peak area of SK-03-92 was calculated to estimate the drug concentration(s) using a pre-built calibration curve. Major pharmacokinetic parameters were calculated using the noncompartmental analysis module of WinNonlin® (version 5.1, Pharsight Corp., Princeton, NJ, USA) under sparsely sampling mode.
# [2] = test system: human kidney epithelial 293; test: MTT cytotoxicity assay, 293; assay type: cell-based; conditions: cell line printed as 292
# Description: (§1) Initial in vitro safety testing of SK-03-92 was performed with an MTT [3-(4,5-dimethylthiazol-2-yl)-2,5-diphenyltetrazolium bromide] assay (9, American Type Culture Collection) for several tissue culture cell lines (murine monocytic J774A.1, human monocytic U937, human kidney epithelial 293, and human bladder epithelial T24) using mitomycin C (Sigma, St. Louis, MO, USA) and DMSO alone as positive and negative controls, respectively. Assays were done a total of three times per tissue culture cell line.
# [3] = Multi-dosing PK, two doses per day for three days; assay type: in vivo; conditions: mice
# Description: (§2) First, a five-day PK study with SK-03-92 orally administered to female 5-6 week old BALB/c mice was conducted. Three mice received 300 μL of blank vehicle by oral administration. Doses of 100 μg/g SK-03-92 were given orally each day in the vehicle. Blood was collected from three mice at time points 15, 30, 45, 60, 75, and 90 min after administration. Body weight was monitored every day before SK-03-92 administration. Plasma was prepared and stored at −70 °C until analyzed by HPLC. In an extension of this PK study to two-weeks following oral administration of SK-03-92, six mice were dosed in the test (SK-03-92) arm and six vehicle control mice in the other arm. Lastly, a multi-dosing PK analysis was done using two 51-μg/g doses of SK-03-92 per day (given four hours apart) over the course of three days in five mice.
# Swiss Webster mice = test: Initial safety testing in mice, escalating ip dosing (OECD); assay type: in vivo
# Description: Three female 5–9 week old Swiss Webster mice (Harlan) per drug concentration were injected intraperitoneally (ip) with increasing concentrations of SK-03-92: 5, 50, 300, and 2000 mg/kg according to OECD [10]. The lowest concentration of drug was used first. Overt toxicity (e.g., altered gait, ungroomed, significant weight loss) was monitored.
# [4] = Two-week multi-dose oral PK study; assay type: in vivo
# Description: as §2
# plasma proteins = test: Plasma protein binding assay; assay type: in vitro ADME, mice; conditions: mouse plasma; read-out: bound to plasma proteins (converted)
# Description: Plasma collected from EDTA treated blood from six SK-03-92 dosed mice was added to methyl tert-butyl ether (MTBE) to precipitate the proteins. The precipitated proteins were separated from the remainder of the plasma by centrifugation (14,000× g for 20 min) through a Microcon 10K filter (Millipore) and dried under a stream of nitrogen gas. The dried product was suspended in 62% acetonitrile/38% ddH2O and the AUC was quantified and correlated with the initial concentration of SK-03-92 present in the plasma.
# murine monocytic J774A.1 = test: MTT cytotoxicity assay, J774A.1; assay type: cell-based; conditions: Mus musculus, J774.A1; J774A.1 cells
# Description: as §1
# [5] = test system: several mammalian cell lines; test: MTT cytotoxicity, cell lines overall and therapeutic index; assay type: cell-based; conditions: read-out: IC50 in vitro
# Description: as §1
# [6] = test system: S. aureus (including MRSA and VISA strains); design: method as in PMID 21739106; conditions: cited from earlier work
# [7] = test system: human bladder epithelial T24; test: MTT cytotoxicity assay, T24; assay type: cell-based; conditions: T-24, T24 cells
# Description: as §1
# human monocytic U937 = test: MTT cytotoxicity assay, U937; assay type: cell-based; conditions: U-937, U937 cells
# Description: as §1
# [8] = Five-day multi-dose oral PK study; assay type: in vivo; conditions: female, BALB/c, mouse, plasma, mice, five-day oral 100 μg/g each day
# Description: as §2
# [9] = Solubility in vehicles by HPLC; assay type: physicochemical; conditions: for solubility: HPLC
# Description: An HPLC method was developed on a Halo C18 4.6 × […], 2.7 μm column (MAC-MOD Analytical Inc., Chadds Ford, PA, USA) for the detection and quantitation of SK-03-92. The method was developed using the information obtained from a scouting gradient of 5%–100% acetonitrile over 35 min. A UV spectrum of SK-03-92 was obtained from the scouting gradient and the observed maximum for SK-03-92 was 335 nm, with a local maximum of 224 nm also observed. The 335 nm maximum wavelength was used for the quantitation of SK-03-92, and the 224 nm local maximum wavelength was used to monitor for possible formation of degradation products not visible at the 335 nm wavelength. Flow rate was 0.750 mL/min and injection volume was 10 μL. The mobile phase was 62% acetonitrile (Fisher, Hanover Park, IL, USA):38% water (Milli-Q UV plus) and the isocratic program was 62% acetonitrile:38% water for 20 min. Acquisition time was 10 min and room temperature retention time was 5.4 min. Standards of SK-03-92 were prepared in acetonitrile at concentrations of 0.05–0.005 mg/mL.
# [10] = Relative bioavailability / single dose PK, oral; assay type: in vivo, BALB/c mice; conditions: mice
structure (smiles),measurement,setting,value
COc1cc(/C=C/c2ccc(O)cc2)cc(OC)c1 [pterostilbene],half-lives in animal plasma,[1]; animal plasma,120 min
same,plasma concentrations,[1]; animals,< 8000 ng/mL
same,toxicity at high doses,"mice, rats, and humans; mice, rats, and humans",non-toxic
Oc1ccc(/C=C/c2cc(O)cc(O)c2)cc1 [resveratrol],half-lives in animal plasma,[1]; in vivo,15 to 60 min
same,toxicity at high doses,"mice, rats, and humans; in vivo",non-toxic
"COc1cc(O)cc(/C=C/c2cc3ccccc3s2)c1 [SK-03-92, (E)-3-(2-(benzo[b]thiophen-2-yl)vinyl)-5-methoxyphenol]",concentration at 30 min,"Single dose PK assay, ip; female, BALB/c, mouse, plasma, 100 μg/g, 30 min after ip injection",1640 ng/mL
same,concentration at 90 min,"Single dose PK assay, ip; female, BALB/c, mouse, plasma, 100 μg/g, within 90 min of ip injection",149 ng/mL
same,half-life,"Single dose PK assay, ip; female, BALB/c, mouse, plasma, intraperitoneal, oral, 100 μg/g, single dose 100 μg/g, route not given, read-out: drug half-life",20 to 30 min
same,half-life,"Single dose PK assay, ip; female, BALB/c, mouse, plasma, ip, 100 μg/g, ip, single dose 100 μg/g, read-out: Half-Life",22 min
same,Tmax,"Single dose PK assay, ip; female, BALB/c, mouse, plasma, ip, single dose 100 μg/g",30 min
same,AUC(0-inf),"Single dose PK assay, ip; female, BALB/c, mouse, plasma, ip, single dose 100 μg/g, read-out: AUCINF_obs (converted)",1170 ng·h/mL
same,Cmax,"Single dose PK assay, ip; female, BALB/c, mouse, ip, single dose 100 μg/g, plasma",1640 ± 590 ng/mL
same,time to breakdown into metabolic byproducts,"Single dose PK assay, ip; after ip or oral delivery",≤ 15 min
same,Cl_F_obs,"Single dose PK assay, ip; ip, single dose 100 μg/g",1.46 mL/min/g and 1.46 ± 0.26 mL/min/g
same,Vz_F_obs,"Single dose PK assay, ip; ip, single dose 100 μg/g",47.71 mL/g and 47.71 ± 33.25 mL/g
same,half-life,"Single dose PK assay, ip; ip, single dose 100 μg/g",22.46 ± 17.81 min
same,overt toxicity,"Single dose PK assay, ip; single dose 100 μg/g ip",no overt toxicity
same,time at which peak plasma concentration was achieved,"Single dose PK assay, ip; single dose 100 μg/g, route not given",20 to 30 min
same,IC50,[2],125 µg/mL
same,gross adverse effects,[3]; multi-dose analysis,no gross adverse effects
same,maximum plasma concentration,[3]; two 51-μg/g doses per day four hours apart for three days,2.12 µg/mL
same,adverse effects / overt toxicity after single dose,"Swiss Webster mice; 2000 mg/kg IP single dose, two-week time frame, 2000 mg/kg",non-toxic; also recorded: did not exhibit gross toxicity
same,overt toxicity after repeat dose,Swiss Webster mice; repeat dose of 2000 mg/kg a week after initial 2000 mg/kg,no overt toxicity was observed
same,concentration at 15 min,"[4]; BALB/c, mouse, plasma, 100 μg/g, mice, two-week oral administration, after 15 min",144 ng/mL
same,concentration at 75 min,"[4]; BALB/c, mouse, plasma, 100 μg/g, mice, two-week oral administration, after 75 min",10 ng/mL
same,weight loss of treated mice,"[4]; multi-dose oral, after two-days",about 1.5%
same,weight increase of treated mice,"[4]; multi-dose oral, day 9",5.16%
same,weight increase of treated mice,"[4]; multi-dose oral, day 12",9.75%
same,fraction unbound,plasma proteins,0.156
same,IC50,murine monocytic J774A.1,125 µg/mL
same,IC50,[5],125 µg/mL
same,MIC50,[6],1 µg/mL
same,MIC90,[6],2 µg/mL
same,IC50,[7],125 µg/mL
same,IC50,human monocytic U937,125 µg/mL
same,concentration at 15 min,[8]; after 15 min,86 ng/mL
same,concentration at 75 min,[8]; after 75 min,27 ng/mL
same,solubility with Solutol HS 15/PBS solution,[9]; Solutol HS 15/PBS solution,less than 10%
same,solubility,"[9]; aqueous buffer, PBS, read-out: Solubility in PBS",< 0.1 µg/mL
same,solubility,"[9]; aqueous with cosolvent or surfactant or cyclodextrin, 20% Solutol HS 15/80% PBS, read-out: Solubility in 20% Solutol HS 15/80% PBS",4600 µg/mL
same,solubility,"[9]; organic solvent or mixture, PEG 400, read-out: Solubility in PEG 400",9200 µg/mL
same,half-life,"[10]; female, BALB/c, mouse, plasma, po, 100 μg/g, oral, single dose 100 μg/g, read-out: Half-Life",30 min
same,Tmax,"[10]; female, BALB/c, mouse, plasma, po, 100 μg/g, oral, single dose 100 μg/g, read-out: Tmax (converted)",22 min
same,concentration at 15 min,"[10]; female, BALB/c, mouse, plasma, 100 μg/g oral, after 15 min, read-out: level detected in mouse plasma",740 ng/g
same,concentration at 30 min,"[10]; female, BALB/c, mouse, plasma, 100 μg/g oral, by 30 min, read-out: level detected in mouse plasma",126 ng/g
same,AUC(0-inf),"[10]; female, BALB/c, mouse, plasma, oral, single dose 100 μg/g, read-out: AUCINF_obs (converted)",85.7 ng·h/mL
same,Cmax,"[10]; female, BALB/c, mouse, po, 100 μg/g, orally administered, plasma",370 ng/mL
same,toxicity signs,[10]; 100 μg/g oral,no toxicity signs were observed
same,plasma concentrations,[10]; 75 min after oral gavage,negligible levels
same,oral Cmax relative to Cmax of ip-administered drug,[10]; oral vs ip,approximately 25%
same,Cl_F_obs,"[10]; oral, single dose 100 μg/g",21.00 ± 6.71 mL/min/g
same,Tmax,"[10]; oral, single dose 100 μg/g",21.43 ± 11.80 min
same,Vz_F_obs,"[10]; oral, single dose 100 μg/g",810.67 ± 173.87 mL/g
same,half-life,"[10]; oral, single dose 100 μg/g",30.40 ± 17.81 min
